Measured values from the supplement of paper PMC11061612.

Experiments:
[1] = system: MG-63 (Osteosarcoma); test: Bliss excess, mean over the matrix (fraction); higher = more synergy
Procedure, shortened: (§1)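 Cell lines grown in DMEM/F12 or RPMI with 10% FBS were plated in 1536-well plates and held 24 hours at 37°C, 5% CO2 before 72 hours of exposure to two-drug dose matrices, with DMSO typically at 0.2%. CellTiter-Glo 2.0 luminescence gave viability, which was converted to inhibition. Vehicle wells were set to 0 and blank wells to 1. Combination Emax is the second-highest inhibition in the matrix, and Bliss excess is the observed combination effect minus the expected EA + EB − EA·EB, where EA and EB are the single-agent effects.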

[2] = system: MDA-MB-175-VII (Breast Carcinoma); test: as above
Procedure, shortened: as §1

[3] = system: NCI-H2023 (Non-Small Cell Lung Carcinoma); test: as above
Procedure, shortened: as §1

[4] = system: NCI-H2452 (Mesothelioma); test: as above
Procedure, shortened: as §1

[5] = system: NTERA-2-cl-D1 (Other Solid Carcinomas); test: as above
Procedure, shortened: as §1

[6] = system: NCI-H1435 (Non-Small Cell Lung Carcinoma); test: combination Emax (second highest fraction inhibited in the dose matrix, 72 h); higher = more inhibition; extreme values may be limits of the assay
Procedure, shortened: as §1

[7] = system: MDA-MB-175-VII (Breast Carcinoma); test: as above
Procedure, shortened: as §1

[8] = system: KNS-62 (Squamous Cell Lung Carcinoma); test: as above
Procedure, shortened: as §1

[9] = system: MRK-nu-1 (Breast Carcinoma); test: as above
Procedure, shortened: as §1

[10] = system: GCIY (Gastric Carcinoma); test: as above
Procedure, shortened: as §1

[11] = system: L-363 (Plasma Cell Myeloma); test: as above
Procedure, shortened: as §1

[12] = system: ATN-1 (T-Lymphoblastic Leukemia); test: Bliss excess, mean over the matrix (fraction); higher = more synergy
Procedure, shortened: as §1

[13] = system: HT-1197 (Bladder Carcinoma); test: combination Emax (second highest fraction inhibited in the dose matrix, 72 h); higher = more inhibition; extreme values may be limits of the assay
Procedure, shortened: as §1

[14] = system: SUP-HD1 (Hodgkin's Lymphoma); test: as above
Procedure, shortened: as §1

[15] = system: HT-3 (Cervical Carcinoma); test: as above
Procedure, shortened: as §1

[16] = system: NCI-H2170 (Squamous Cell Lung Carcinoma); test: as above
Procedure, shortened: as §1

[17] = system: OCI-M1 (Acute Myeloid Leukemia); test: Bliss excess, mean over the matrix (fraction); higher = more synergy
Procedure, shortened: as §1
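Throughout, for Bliss excess, mean over the matrix: after 72 h of two-drug dosing.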

| Structure (SMILES) | Bliss excess [1] | Bliss excess [2] | Bliss excess [3] | Bliss excess [4] | Bliss excess [5] | combination Emax [6] | combination Emax [7] | combination Emax [8] | combination Emax [9] | combination Emax [10] | combination Emax [11] | Bliss excess [12] | combination Emax [13] | combination Emax [14] | combination Emax [15] | combination Emax [16] | Bliss excess [17] |
| --- | --- | --- | --- | --- | --- | --- | --- | --- | --- | --- | --- | --- | --- | --- | --- | --- | --- |
| C[C@@H](Oc1cc(-c2cnn(C3CCNCC3)c2)cnc1N)c1c(Cl)ccc(F)c1Cl [Crizotinib] + Cn1cnc2c(F)c(Nc3ccc(Br)cc3Cl)c(C(=O)NOCCO)cc21 [Selumetinib] (first compound max 10 µM, 7x7, partner max 10 µM) | -0.0017 | 0.0011 | -0.0007 | -0.0494 | -0.027 | 0.136 | 0.267 | 0.369 | 0.224 | 0.46 | 0.871 | – | – | – | – | – | – |
| C[C@@H]1COCCN1c1cc(C2([S@](C)(=N)=O)CC2)nc(-c2ccnc3[nH]ccc23)n1 [AZD6738] + Nc1ccn([C@@H]2O[C@H](CO)[C@@H](O)C2(F)F)c(=O)n1 [Gemcitabine] (first compound max 10 µM, 7x7, partner max 0.3 µM) | 0.17 | -0.0368 | 0.0123 | 0.0333 | -0.0019 | 0.411 | 0.529 | 0.665 | 0.781 | 0.774 | 0.941 | – | – | – | – | – | – |
| C[C@@H](Oc1cc(-c2cnn(C3CCNCC3)c2)cnc1N)c1c(Cl)ccc(F)c1Cl [Crizotinib] + CC1=C(C(=CC=C1)Cl)NC(=O)C2=CN=C(S2)NC3=CC(=NC(=N3)C)N4CCN(CC4)CCO [Dasatinib] (first compound max 10 µM, 7x7, partner max 2 µM) | 0.0498 | -0.0527 | -0.012 | 0.0069 | 0.0073 | 0.255 | 0.0779 | 0.302 | 0.218 | 0.863 | 0.632 | – | – | – | – | – | – |
| C[C@@H](Nc1cc(F)cc(F)c1)c1cc(C(=O)N(C)C)cc2c(=O)cc(N3CCOCC3)oc12 [AZD8186] + C1CN(CCC1(C(=O)N[C@@H](CCO)C2=CC=C(C=C2)Cl)N)C3=NC=NC4=C3C=CN4 [AZD5363] (first compound max 10 µM, 7x7, partner max 10 µM) | -0.0376 | -0.0108 | -0.0589 | -0.0466 | -0.0573 | 0.258 | 0.573 | 0.533 | 0.305 | 0.743 | 0.318 | – | – | – | – | – | – |
| Cc1nc(-c2cn3c(n2)-c2ccc(-c4cnn(C(C)(C)C(N)=O)c4)cc2OCC3)n(C(C)C)n1 [Taselisib] + O=C(Nc1ccc2[nH]nc(-c3ccncc3)c2c1)[C@@H]1CCN(CC(=O)N2CCN(c3ccc(-c4ncccn4)cc3)CC2)C1 [SCH772984] (first compound max 10 µM, 7x7, partner max 5 µM) | -0.0764 | 0.138 | -0.0437 | -0.0276 | -0.0322 | 0.791 | 1 | 0.787 | 0.542 | 0.888 | 0.63 | – | – | – | – | – | – |
| CCc1c2c(nc3ccc(O)cc13)-c1cc3c(c(=O)n1C2)COC(=O)[C@]3(O)CC [SN-38] + O=C(c1cc(Cc2n[nH]c(=O)c3ccccc23)ccc1F)N1CCN(C(=O)C2CC2)CC1 [Olaparib] (first compound max 0.3 µM, 7x7, partner max 10 µM) | 0.0681 | 0.0367 | 0.0986 | 0.0422 | 0.0387 | 0.326 | 0.649 | 0.905 | 0.868 | 0.779 | 0.421 | 0.0907 | 0.35 | 0.895 | 0.979 | 0.969 | – |
| CS(=O)(=O)CCNCc1ccc(-c2ccc3ncnc(Nc4ccc(OCc5cccc(F)c5)c(Cl)c4)c3c2)o1 [Lapatinib] + NC1(c2ccc(-c3nc4ccn5c(=O)[nH]nc5c4cc3-c3ccccc3)cc2)CCC1 [MK-2206] (first compound max 10 µM, 7x7, partner max 10 µM) | 0.0157 | 0.0563 | 0.0246 | -0.0302 | 0.0305 | 0.665 | 1 | 0.721 | 0.361 | 0.934 | 0.912 | – | – | – | – | – | 0.0217 |
| O=C(c1cc(Cc2n[nH]c(=O)c3ccccc23)ccc1F)N1CCN(C(=O)C2CC2)CC1 [Olaparib] + COc1nnc2ccc(N3CCC(c4ccc(OCCN5CCN(C)C(=O)[C@H]5C)cc4)CC3)nn12 [AZD5153] (first compound max 10 µM, 7x7, partner max 1 µM) | -0.0749 | -0.0024 | -0.0624 | -0.0361 | -0.127 | 0.223 | 0.316 | 0.436 | 0.467 | 0.487 | 0.468 | – | – | – | – | – | – |
